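1) Cells in 96-well plates. 2) Compound, 48 h, 5 concentrations. 3) Linear interpolation between surrounding doses. 4) Unreached endpoint = highest concentration. At the TGI there is no net growth.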 Where a SMILES comes first, the peptide text is derived from it. [ ]: non-standard residue; d: D form. The star is where a group is joined. ξ: configuration not given here. Propanoyl(3-(4-MeO-Ph)) = COc1ccc(CCC(=O)*)cc1; Thr(3ξ) = CC(O)[C@H](N)C(=O)O; dNMeL = CN[C@H](CC(C)C)C(=O)O; OBn = c1ccc(CO*)cc1; ξLac = CC(O)C(=O)O
How the values were obtained:
Test in all cases: NCI tumour cell line growth inhibition, 48 h
786-0 renal = test system: 786-0 renal
UACC-257 melanoma = test system: UACC-257 melanoma
SF-539 CNS = test system: SF-539 CNS
DU-145 prostate = test system: DU-145 prostate
MOLT-4 leukemia = test system: MOLT-4 leukemia
RPMI-8226 leukemia = test system: RPMI-8226 leukemia
HT29 colon = test system: HT29 colon
RXF 393 renal = test system: RXF 393 renal
SNB-75 CNS = test system: SNB-75 CNS

| Structure (SMILES) | TGI (786-0 renal) [µM] | TGI (UACC-257 melanoma) [µM] | TGI (SF-539 CNS) [µM] | TGI (DU-145 prostate) [µM] | TGI (MOLT-4 leukemia) [µM] | TGI (RPMI-8226 leukemia) [µM] | TGI (HT29 colon) [µM] | TGI (RXF 393 renal) [µM] | TGI (SNB-75 CNS) [µM] |
| --- | --- | --- | --- | --- | --- | --- | --- | --- | --- |
| COc1ccc(C(C#N)NCCCCCCNC(C#N)c2ccc(OC)cc2)cc1 (configuration not stated) | > 100 | > 100 | > 100 | > 100 | > 100 | > 100 | > 100 | > 100 | > 100 |
| Nn1c(SCC(=O)NCc2ccccc2)nc2ccccc2c1=O | > 100 | > 100 | > 100 | > 100 | 49.5 | > 100 | > 100 | > 100 | > 100 |
| CC(NC(=O)C(N)CC(=O)O)NC(=O)N1CCOCC1 (configuration not stated) | > 100 | > 100 | > 100 | > 100 | > 100 | > 100 | > 100 | > 100 | > 100 |
| COC(=O)c1ccc(CCc2cc(O)c(Br)cc2O)cc1 | 27.5 | 30.9 | 20.7 | 27.5 | 6.65 | 92.2 | 32.8 | 32.9 | > 59.6 |
| CCCC#CC(O)(C(=O)OC1CCN(C)CC1)C1CCCCC1 (configuration not stated) | > 100 | > 100 | > 100 | > 100 | > 100 | > 100 | > 100 | > 100 | > 100 |
| COc1ccc(Nc2nc(N)c(C(=O)c3ccccc3)s2)cc1 | 31.6 | > 100 | 0.0327 | > 72.8 | > 61.7 | 32.7 | 15.4 | 24.2 | 0.33 |
| O[C@H]1[C@H](O)[C@H](O)CN2CCC[C@@H](O)[C@H]12 | > 100 | > 100 | > 100 | > 100 | > 100 | > 100 | > 100 | > 100 | > 100 |
| Cn1c2ccccc2n2c(=O)c3cccnc3c(C#N)c12 | > 100 | > 100 | > 100 | > 100 | > 100 | > 100 | > 100 | > 100 | > 100 |
| CCn1c(-c2ccc(C)cc2)cs/c1=N\C(P(=O)(O)O)P(=O)(O)O | > 100 | > 100 | > 100 | > 100 | > 100 | > 100 | > 100 | > 100 | > 100 |
| S=C(c1c[nH]c2ccccc12)N1CCN(c2ccccc2)CC1 | > 100 | > 100 | > 100 | > 100 | > 100 | > 100 | > 100 | > 100 | 21.6 |
| CC1(C)C(=O)C2(OS(=O)(=O)C(F)(F)F)CCC1C2 (configuration not stated) | > 100 | > 100 | > 100 | > 100 | > 100 | > 100 | > 100 | > 100 | > 100 |
| Nc1nc(N)c2nnn(C[C@H]3CC[C@@H](CO)C3)c2n1 | > 100 | > 100 | > 100 | > 100 | > 100 | > 100 | > 100 | > 100 | > 100 |
| CCOC(=O)/C=C(\N=P(c1ccccc1)(c1ccccc1)c1ccccc1)C(F)(F)C(F)(F)C(F)(F)C(F)(F)C(F)(F)F | > 100 | > 100 | > 100 | > 100 | > 100 | > 100 | > 100 | > 100 | > 100 |
| O=C(N/N=C\c1ccc([N+](=O)[O-])cc1)Nc1cccc2ccccc12 | 29.1 | > 100 | 33 | > 100 | > 100 | > 100 | > 100 | 34.5 | > 28.8 |
| COc1ccc(CCc2ccc(O)c(C(=O)O)c2)cc1OC | > 100 | > 100 | > 100 | > 100 | > 100 | > 100 | > 100 | > 100 | > 100 |
| O=c1[nH]c2ccc(CC(=S)N3CCN(c4ccccc4)CC3)cc2o1 | > 100 | > 100 | > 100 | > 100 | > 100 | > 100 | > 100 | > 100 | > 94.7 |
| COc1ccc(C2SCC(=O)N2NC(=O)C(C)Oc2ccccc2Cl)cc1 (configuration not stated) | > 100 | > 100 | > 100 | > 100 | 79.5 | > 100 | > 100 | > 100 | > 100 |
| NCCCc1c(-c2ccccc2)nc(N)[nH]c1=O | > 100 | > 100 | > 100 | > 100 | > 100 | > 100 | > 100 | > 100 | > 100 |
| Cc1ccc2cccc3c2c1CC1(C3=O)S(=O)(=O)OCCOS1(=O)=O | > 100 | > 100 | > 100 | > 100 | > 100 | > 100 | > 100 | > 100 | > 100 |
| COc1ccc(CCC(=O)OC(C)[C@H](NC(=O)[C@@H](CC(C)C)N(C)C(=O)[C@@H]2CCCN2C(=O)C(C)O)C(=O)OCc2ccccc2)cc1 (some centres not stated) (H-[ξLac]P[dNMeL][Thr(3ξ)](Propanoyl(3-(4-MeO-Ph)))-OBn) | > 100 | 35.6 | 46.2 | > 100 | 63 | 80.6 | > 100 | 44.7 | 45.7 |
| CC1=C(C(=O)Nc2ccccc2)C(c2ccc(C)o2)C(C#N)=C(SCc2ccccc2)N1 (configuration not stated) | > 100 | > 100 | > 100 | > 100 | > 100 | > 100 | > 100 | > 100 | > 100 |
| Clc1ccc2c(NCCNc3ccnc4cc(Cl)ccc34)ccnc2c1 | 28.2 | 32.3 | 25.3 | 48.2 | 35.3 | 42 | 29.5 | 36.1 | 50.3 |
| N=c1oc2ccc(Cl)cc2cc1C(=O)NCc1ccccc1 | > 100 | > 100 | > 100 | > 100 | > 56.7 | > 100 | > 100 | > 100 | > 95 |
